# Where two headings read alike, the source gives them in different places.
# What was measured:
# [1] = biological target: Recombinant SIK2 (Homo sapiens (Human), UniProt Q9H0K1); experiment: biochemical
# Method: Assays were performed in base reaction buffer (20 mM Hepes (pH 7.5), 10 mM MgCl2, 1 mM EGTA, 0.02% Brij35, 0.02 mg/mL BSA, 0.1 mM Na3VO4, 2 mM DTT, 1% DMSO). Compounds were dissolved in 100% DMSO in a 10 mM stock. […] Assays were performed for 20 minutes at room temperature, after which time ^33P-ATP (10 μCi/μL) was added followed by incubation for another 120 minutes at room temperature. Thereafter, radioactivity incorporated into the pEY peptide substrate was detected by filter-binding method. Kinase activity data were expressed as the percent remaining kinase activity in test samples compared to DMSO reactions. IC50 values and curve fits were obtained using Prism (GraphPad Software).
# [2] = system: RANKL; experiment: RANKL gene expression in Ocy454 cells (RT-qPCR); settings: maximal RANKL fold induction versus DMSO, four hours;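 note: Ocy454 cells moved to 37 °C for osteocytic differentiation before compound exposure, RANKL mRNA by SYBR Green qRT-PCR, 2^−ΔΔCT with β-actin normalization, duplicate wells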
# [3] = system: CRTC2 (TORC2); experiment: CRTC2 nuclear translocation (PathHunter U2OS); format: cell-based; settings: maximal CRTC2 nuclear translocation, U2OS cells, 90 minutes, maximum dose 10 μM
# Description: PathHunter® Nuclear Translocation cell lines are engineered to co-express two fusion proteins: a) Enzyme Donor (ED) tagged target protein; b) an Enzyme Acceptor (EA) tagged TAZ domain, derived from the CBP/P300 transcription factor, that localizes to the nucleus. Activation of the signaling pathway induces translocation of the ED-tagged target protein into the nucleus, which will force complementation of the two enzyme fragments, and result in the formation of a functional enzyme that will hydrolyze substrate and generate a chemiluminescent signal. U2OS CRTC2 (TORC2) translocation assays were performed in 384 well plates at Eurofins DiscoverX (Freemont, CA). Cells were treated with compounds for 90 minutes in experimental duplicates in 5 point dose response format (4-fold serial dilutions with a maximum dose of 10 μM) followed by […] readout on an Envision 2104 Multilabel Reader. In all experiments, forskolin was used as a positive control and maximal CRTC2 nuclear translocation induced by each compound is expressed as a percentage of the signal stimulated by forskolin.
# Representative data are shown in FIG. 4A and presented as percent of the positive control (forskolin) signal.
# [4] = recombinant SIK2 2.5 nM, 1 μM ATP, read-out: SIK2 IC50
# Sequence of Recombinant SIK2 (Q9H0K1 whole entry): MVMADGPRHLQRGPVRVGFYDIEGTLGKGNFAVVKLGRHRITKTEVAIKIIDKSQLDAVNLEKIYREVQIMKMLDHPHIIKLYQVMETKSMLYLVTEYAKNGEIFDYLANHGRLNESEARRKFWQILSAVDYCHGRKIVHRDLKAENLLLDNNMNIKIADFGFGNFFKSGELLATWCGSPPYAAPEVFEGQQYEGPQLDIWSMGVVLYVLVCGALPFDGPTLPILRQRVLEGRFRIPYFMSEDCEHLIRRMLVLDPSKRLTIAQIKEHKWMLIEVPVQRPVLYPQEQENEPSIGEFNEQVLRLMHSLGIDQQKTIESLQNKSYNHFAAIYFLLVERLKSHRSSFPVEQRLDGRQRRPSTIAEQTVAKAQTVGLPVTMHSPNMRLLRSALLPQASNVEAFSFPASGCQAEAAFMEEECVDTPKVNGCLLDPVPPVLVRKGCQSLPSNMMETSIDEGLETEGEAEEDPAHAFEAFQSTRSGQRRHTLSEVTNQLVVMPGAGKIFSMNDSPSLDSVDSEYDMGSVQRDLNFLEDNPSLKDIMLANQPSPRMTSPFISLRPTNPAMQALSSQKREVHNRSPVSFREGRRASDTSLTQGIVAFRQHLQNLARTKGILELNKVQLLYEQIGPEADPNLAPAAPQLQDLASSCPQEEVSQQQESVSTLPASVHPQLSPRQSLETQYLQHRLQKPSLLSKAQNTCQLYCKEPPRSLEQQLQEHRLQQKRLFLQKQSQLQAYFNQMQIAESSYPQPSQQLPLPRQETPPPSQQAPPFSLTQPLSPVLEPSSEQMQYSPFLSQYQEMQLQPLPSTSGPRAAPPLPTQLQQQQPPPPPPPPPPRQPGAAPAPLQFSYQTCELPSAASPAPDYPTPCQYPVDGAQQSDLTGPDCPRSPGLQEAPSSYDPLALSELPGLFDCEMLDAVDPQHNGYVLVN
"IC50 ([1]; initial in vitro testing, read-out: SIK2 inhibition IC50)",Structure (SMILES),"IC50 [1, 4]",RANKL Fold Induction [2],CRTC2 Efficacy (% of forskolin) [3]
< 0.1 nM,"COc1cc(-c2cnc3cc(-c4cnn(C5CC5)c4)ccn23)cc(OC)c1C(=O)NN [Cmpd. 55A, 4-(7-(1-cyclopropyl-1H-pyrazol-4-yl)imidazo[1,2-a]pyridin-3-yl)-2,6-dimethoxybenzohydrazide]",,,
,"Cc1cn(-c2cccc3ccc(-n4cnc5cc(OCC6(C)COC6)ccc54)nc23)cn1 [Example 1, 8-(4-Methylimidazol-1-yl)-2-[5-[(3-methyloxetan-3-yl)methoxy]benzimidazol-1-yl]quinoline]",30.7 nM,3.08 fold,
,"CC1(COc2ccc3c(c2)ncn3-c2ccc3cccc(N4CCC5(CCNC5)C4)c3n2)COC1 (centres unmarked) [Example 6, 2-(5-((3-methyloxetan-3-yl)methoxy)-1H-benzo[d]imidazol-1-yl)-8-(2,7-diazaspiro[4.4]nonan-2-yl)quinoline]",5.75 nM,,127.8 % of forskolin
,"CC1(COc2ccc3c(c2)ncn3-c2ccc3cccc(OC4CNC4)c3n2)COC1 [Example 9, 8-(azetidin-3-yloxy)-2-(5-((3-methyloxetan-3-yl)methoxy)-1H-benzo[d]imidazol-1-yl)quinoline]",24.6 nM,9.69 fold,
,"CN1CC(Oc2cccc3ccc(-n4cnc5cc(OCC6(C)COC6)ccc54)nc23)C1 [Example 11, 8-((1-Methylazetidin-3-yl)oxy)-2-(5-((3-methyloxetan-3-yl)methoxy)-1H-benzo[d]imidazol-1-yl)quinoline]",22.7 nM,1.38 fold,
,"CC1(COc2ccn3c(-c4ccc5cccc(N6CCC(N)CC6)c5n4)cnc3c2)COC1 [Example 13, 1-(2-(7-((3-Methyloxetan-3-yl)methoxy)imidazo[1,2-a]pyridin-3-yl)quinolin-8-yl)piperidin-4-amine]",4.19 nM,,140.6 % of forskolin
,"Cn1cnc(-c2cccc3ccc(-n4cnc5cc(OCC6(C)COC6)ccc54)nc23)c1 [Example 18, 8-(1-Methyl-1H-imidazol-4-yl)-2-(5-((3-methyloxetan-3-yl)methoxy)-1H-benzo[d]imidazol-1-yl)quinoline]",185 nM,7.49 fold,
,"Cc1ccc(CNC(=O)c2ccn3c(-c4ccc(C#N)cc4)cnc3c2)cn1 [Example 19, 3-(4-cyanophenyl)-N-[(6-methyl-3-pyridyl)methyl]imidazo[1,2-a]pyridine-7-carboxamide]",,1.04 fold,27 % of forskolin
,"N#Cc1ccc(-c2cnc3cc(C(=O)NCc4ccnnc4)ccn23)cc1 [Example 20, 3-(4-cyanophenyl)-N-(pyridazin-4-ylmethyl)imidazo[1,2-a]pyridine-7-carboxamide]",109 nM,,9.4 % of forskolin
,"N#Cc1ccc(-c2cnc3cc(C(=O)NCc4cnccn4)ccn23)cc1 [Example 21, 3-(4-cyanophenyl)-N-(pyrazin-2-ylmethyl)imidazo[1,2-a]pyridine-7-carboxamide]",118 nM,,9.9 % of forskolin
,"N#Cc1ccc(-c2cnc3cc(C(=O)NCc4nc5ccccc5o4)ccn23)cc1 [Example 26, N-(benzo[d]oxazol-2-ylmethyl)-3-(4-cyanophenyl)imidazo[1,2-a]pyridine-7-carboxamide]",83 nM,0.55 fold,1.3 % of forskolin
,"N#Cc1ccc(-c2cnc3cc(C(=O)NCc4ccco4)ccn23)cc1 [Example 27, 3-(4-cyanophenyl)-N-(furan-2-ylmethyl)imidazo[1,2-a]pyridine-7-carboxamide]",132 nM,,5.3 % of forskolin
,"Cc1ccc(CN(C)C(=O)c2ccn3c(-c4ccc(C#N)cc4)cnc3c2)cn1 [Example 30, 3-(4-Cyanophenyl)-N-methyl-N-((6-methylpyridin-3-yl)methyl)imidazo[1,2-a]pyridine-7-carboxamide]",1700 nM,,1.7 % of forskolin
,"N#Cc1ccc(-n2cnc3cc(C(=O)NCc4cccnc4)ccc32)cc1 [Example 32, 1-(4-cyanophenyl)-N-(3-pyridylmethyl)benzimidazole-5-carboxamide]",,,10.6 % of forskolin
,"N#Cc1ccc(-n2cnc3cc(C(=O)NCc4nc5ccccc5[nH]4)ccc32)cc1 [Example 34, N-((1H-benzo[d]imidazol-2-yl)methyl)-1-(4-cyanophenyl)-1H-benzo[d]imidazole-5-carboxamide]",20 nM,,14 % of forskolin
,"N#Cc1ccc(-c2cnc3nc(C(=O)NCc4cccnc4)ccn23)cc1 [Example 36, 3-(4-cyanophenyl)-N-(3-pyridylmethyl)imidazo[1,2-a]pyrimidine-7-carboxamide]",5300 nM,,2.5 % of forskolin

"IC50 ([1]; initial in vitro testing, read-out: SIK2 inhibition IC50)",Structure (SMILES),"IC50 [1, 4]",RANKL Fold Induction [2],CRTC2 Efficacy (% of forskolin) [3]
,"COc1cc(-c2cnc3cc(OCC4(C)COC4)ccn23)cc(OC)c1C#N [Example 40, 2,6-dimethoxy-4-(7-((3-methyloxetan-3-yl)methoxy)imidazo[1,2-a]pyridin-3-yl)benzonitrile]",9.87 nM,,
,"CCn1cc(-c2ccc3c(c2)ncn3-c2ccc(C#N)cc2)cn1 [Example 43, 4-[5-(1-Ethylpyrazol-4-yl)benzimidazol-1-yl]benzonitrile]",5.89 nM,7.09 fold,
,"N#Cc1ccc(-n2cnc3cc(-c4cnn(C5CC5)c4)ccc32)cc1 [Example 44, 4-(5-(1-Cyclopropyl-1H-pyrazol-4-yl)-1H-benzo[d]imidazol-1-yl)benzonitrile]",2.34 nM,3.07 fold,
,"CCn1cc(-c2ccn3c(-c4ccc(C#N)cc4)cnc3c2)cn1 [Example 45, 4-[7-(1-Ethylpyrazol-4-yl)imidazo[1,2-a]pyridin-3-yl]benzonitrile]",,9.41 fold,85 % of forskolin
,"CCn1cc(-c2ccn3c(-c4ccc(C#N)nc4)cnc3c2)cn1 [Example 46, 5-(7-(1-ethyl-1H-pyrazol-4-yl)imidazo[1,2-a]pyridin-3-yl)picolinonitrile]",14 nM,3.44 fold,
,"N#Cc1ccc(-c2cnc3cc(-n4cnc(C5CC5)c4)ccn23)cc1 [Example 48, 4-[7-(4-Cyclopropylimidazol-1-yl)imidazo[1,2-a]pyridin-3-yl]benzonitrile]",7.65 nM,,
,"N#Cc1ccc(-c2cnc3cc(-c4cnn(C5COC5)c4)ccn23)cc1 [Example 50, 4-(7-(1-(oxetan-3-yl)-1H-pyrazol-4-yl)imidazo[1,2-a]pyridin-3-yl)benzonitrile]",2.34 nM,15.84 fold,
,"N#Cc1ccc(-c2cnn3cc(-c4cnn(C5CC5)c4)ccc23)cc1 [Example 54, 4-(6-(1-cyclopropyl-1H-pyrazol-4-yl)pyrazolo[1,5-a]pyridin-3-yl)benzonitrile]",2.24 nM,9.07 fold,
,"CCc1nnc(-c2c(F)cc(-c3cnc4cc(-c5cnn(C)c5)ccn34)cc2F)o1 [Example 58, 2-(2,6-difluoro-4-(7-(1-methyl-1H-pyrazol-4-yl)imidazo[1,2-a]pyridin-3-yl)phenyl)-5-ethyl-1,3,4-oxadiazole]",1080 nM,1.26 fold,
,"CCc1nnc(-c2c(Cl)cc(-c3cnc4cc(-c5cnn(C)c5)ccn34)cc2Cl)o1 [Example 59, 2-(2,6-dichloro-4-(7-(1-methyl-1H-pyrazol-4-yl)imidazo[1,2-a]pyridin-3-yl)phenyl)-5-ethyl-1,3,4-oxadiazole]",270 nM,,
,"CCn1cc(-c2cnc3c(-c4ccc(C#N)cc4)cnn3c2)cn1 [Example 63, 4-[6-(1-Ethylpyrazol-4-yl)pyrazolo[1,5-a]pyrimidin-3-yl]benzonitrile]",3.4 nM,0.89 fold,
,"N#Cc1ccc(-c2cnn3cc(-c4cnn(C5CC5)c4)cnc23)cc1 [Example 64, 4-[6-(1-Cyclopropylpyrazol-4-yl)pyrazolo[1,5-a]pyrimidin-3-yl]benzonitrile]",8.8 nM,0.47 fold,
,"CCn1cc(-c2c(OC)cc(-c3cnn4cc(-c5cnn(C6CC6)c5)ccc34)cc2OC)nn1 [Example 65, 6-(1-Cyclopropylpyrazol-4-yl)-3-[4-(1-ethyltriazol-4-yl)-3,5-dimethoxy-phenyl]pyrazolo[1,5-a]pyridine]",23.7 nM,,
,"N#Cc1ccc(-c2cnc3cc(-c4cn(C5CC5)nn4)ccn23)cc1 [Example 66, 4-[7-(1-Cyclopropyltriazol-4-yl)imidazo[1,2-a]pyridin-3-yl]benzonitrile]",37 nM,,
,"CCn1nnc(-c2ccn3c(-c4ccc(C#N)cc4)cnc3c2)n1 [Example 67, 4-[7-(2-Ethyltetrazol-5-yl)imidazo[1,2-a]pyridin-3-yl]benzonitrile]",227 nM,0.47 fold,

# Reference: patent publication US20240025892A1 (priority 2020, published 2024)
